Data taken from PMC4909242, “Cyclization strategies of meditopes: affinity and diffraction studies of meditope–Fab complexes” (Acta Crystallographica. Section F, Structural Biology …, 2016).

System: cetuximab IgG
Experiment: Surface plasmon resonance binding kinetics of meditope variants to cetuximab
Conditions: SPR; for k a / k d: Biacore T100, cetuximab IgG amine-coupled to CM5 chip (5000 RU), HBS-EP+ pH 7.4, flow 30 µl min^−1; for k a: error <38% for values of variants marked ‡; for k d: off-rate independent of peptide concentration

CC(C)C[C@@H]1NC(=O)[C@H](CCCNC(=N)N)NC(=O)[C@H](CCCNC(=N)N)NC(=O)[C@H]([C@@H](C)O)NC(=O)[C@H](CO)NC(=O)[C@H](CC(C)C)NC(=O)[C@H](CC(=O)O)NC(=O)[C@H](Cc2ccccc2)NC(=O)[C@H](CCC(N)=O)NC(=O)CCCCCCNC(=O)[C@H](CCCCN)NC1=O
k a: 3.8 M^−1 s^−1 × 10^4 | k d: 0.064 s⁻¹

CC(=O)N[C@H]1CSSC[C@@H](C(=O)NCC(=O)NCC(=O)N[C@@H](CO)C(=O)N[C@@H](CCCCN)C(=O)O)NC(=O)[C@H](CCCNC(=N)N)NC(=O)[C@H](CC(C)C)NC(=O)[C@H](CCCNC(=N)N)NC(=O)[C@H](CCCNC(=N)N)NC(=O)[C@H]([C@@H](C)O)NC(=O)[C@H](CO)NC(=O)[C@H](CC(C)C)NC(=O)[C@H](CC(=O)O)NC(=O)[C@H](Cc2ccccc2)NC(=O)[C@H](CCC(N)=O)NC1=O
k d: 0.010 s⁻¹

CC(C)C[C@@H]1NC(=O)[C@H](CCCNC(=N)N)NC(=O)[C@H](CCCNC(=N)N)NC(=O)[C@H]([C@@H](C)O)NC(=O)[C@H](CO)NC(=O)[C@H](CC(C)C)NC(=O)[C@H](CC(=O)O)NC(=O)[C@H](Cc2ccccc2)NC(=O)[C@H](CCC(N)=O)NC(=O)[C@@H](N)CSSC[C@@H](C(N)=O)NC(=O)[C@H](CCCCN)NC1=O
k a: 12 M^−1 s^−1 × 10^4 | k d: 0.018 s⁻¹

CC(=O)N[C@H]1CSSC[C@@H](C(N)=O)NC(=O)[C@H](CCCCN)NC(=O)[C@H](CC(C)C)NC(=O)[C@H](CCCNC(=N)N)NC(=O)[C@H](CCCNC(=N)N)NC(=O)[C@H]([C@@H](C)O)NC(=O)[C@H](CO)NC(=O)[C@H](CC(C)C)NC(=O)[C@H](CC(=O)O)NC(=O)[C@H](Cc2ccccc2)NC(=O)[C@H](CCC(N)=O)NC1=O
k a: 15 M^−1 s^−1 × 10^4 | k d: 0.011 s⁻¹ | increase in affinity compared with the original meditope (ratio of K d to the original disulfide meditope): ~2.3 fold

CC(C)C[C@@H]1NC(=O)[C@H](CCCNC(=N)N)NC(=O)[C@H](CCCNC(=N)N)NC(=O)[C@H]([C@@H](C)O)NC(=O)[C@H](CO)NC(=O)[C@H](CC(C)C)NC(=O)[C@H](CC(=O)O)NC(=O)[C@H](Cc2ccccc2)NC(=O)[C@H](CCC(N)=O)NC(=O)CCNC(=O)CCNC(=O)[C@H](CCCCN)NC1=O
k a: 5.8 M^−1 s^−1 × 10^4 | k d: 0.091 s⁻¹

CC(C)C[C@@H]1NC(=O)[C@H](CCCNC(=N)N)NC(=O)[C@H](CCCNC(=N)N)NC(=O)[C@H]([C@@H](C)O)NC(=O)[C@H](CO)NC(=O)[C@H](CC(C)C)NC(=O)[C@H](CC(=O)O)NC(=O)[C@H](Cc2ccccc2)NC(=O)[C@H](CCC(N)=O)NC(=O)CCSSC[C@@H](C(=O)O)NC(=O)[C@H](CCCCN)NC1=O
k a: 2.1 M^−1 s^−1 × 10^4 | k d: 0.012 s⁻¹ | decrease in the on-rate compared with the long meditope (ratio of k a): ~4.4 fold
